Literature values, collected in patent publication US20100297230A1, “COMPOSITIONS AND METHODS FOR PROSTATE AND MENSTRUAL/MENOPAUSAL RELATED HEALTH” (priority 2009, published 2010).
“Also recorded” adds a separate entry of the source. Read-outs that look alike come from different tables or passages of the source. Values belong to the compound of their own block, whether it stands above or below them.

Key:
[1] = tested on: rats with prostatic hyperplasia; conditions: testosterone enanthate treated rats; 0.1 mg benzylglucosinolate
[2] = single dose of Epimedium tea
[3] = in vivo
[4] = molecular target: T1, primary alpha receptor (estrogen receptor) (Homo sapiens, UniProt P03372)
T1 sequence (P03372 1-595): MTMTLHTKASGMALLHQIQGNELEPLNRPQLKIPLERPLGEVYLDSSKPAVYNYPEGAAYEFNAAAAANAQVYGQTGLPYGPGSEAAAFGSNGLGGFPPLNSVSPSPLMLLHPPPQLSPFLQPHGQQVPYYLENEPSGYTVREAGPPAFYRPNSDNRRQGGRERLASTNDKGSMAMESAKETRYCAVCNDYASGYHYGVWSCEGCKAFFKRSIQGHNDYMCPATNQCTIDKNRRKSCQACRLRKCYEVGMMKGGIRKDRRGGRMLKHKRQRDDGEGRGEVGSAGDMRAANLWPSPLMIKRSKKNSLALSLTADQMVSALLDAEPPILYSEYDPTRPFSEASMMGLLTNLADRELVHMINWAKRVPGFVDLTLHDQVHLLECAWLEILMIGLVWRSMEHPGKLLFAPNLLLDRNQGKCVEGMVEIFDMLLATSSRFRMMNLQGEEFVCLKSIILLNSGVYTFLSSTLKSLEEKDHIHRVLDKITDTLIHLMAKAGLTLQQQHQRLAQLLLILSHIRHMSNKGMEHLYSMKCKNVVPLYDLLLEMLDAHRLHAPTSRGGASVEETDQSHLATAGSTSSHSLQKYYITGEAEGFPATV

[5] = tested on: late postmenopausal women; conditions: daily 60 mg icariin, 15 mg daidzein, 3 mg genistein; over 25 months; compared to placebo
estrogen receptor beta = estrogen receptor beta (Homo sapiens, UniProt Q92731)
estrogen receptor beta, sequence (Q92731 whole entry, species assumed): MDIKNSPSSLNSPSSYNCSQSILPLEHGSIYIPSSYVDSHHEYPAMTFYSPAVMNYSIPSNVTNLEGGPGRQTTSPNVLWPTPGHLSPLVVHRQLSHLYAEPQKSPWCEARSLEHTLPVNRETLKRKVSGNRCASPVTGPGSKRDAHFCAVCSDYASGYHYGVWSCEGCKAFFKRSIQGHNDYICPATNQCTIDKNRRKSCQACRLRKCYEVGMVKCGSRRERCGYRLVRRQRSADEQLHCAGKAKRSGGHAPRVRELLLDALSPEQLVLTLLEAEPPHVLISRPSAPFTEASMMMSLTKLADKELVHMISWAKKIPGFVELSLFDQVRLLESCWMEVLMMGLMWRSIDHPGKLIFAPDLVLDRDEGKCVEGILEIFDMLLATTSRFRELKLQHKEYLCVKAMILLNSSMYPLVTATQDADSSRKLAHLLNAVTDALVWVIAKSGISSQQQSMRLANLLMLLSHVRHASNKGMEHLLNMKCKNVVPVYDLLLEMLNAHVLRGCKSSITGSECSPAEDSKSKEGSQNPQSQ

[6] = tested on: human prostate carcinoma PC-3 cells; conditions: in vitro
[7] = tested on: human prostatic smooth muscle cells
MMP2 = conditions: PC-3 cells
rats = conditions: for prostate and seminal vesicle size: 270 mg/kg daily injection, compared to all other treatments, P<0.05
[8] = male and female subjects 18-55 yrs
MMP9 = conditions: PC-3 cells

serum desmethylicaritin ([2]; desmethyl-icaritin 0.19 mg): not detected
SMILES: CC(C)=CCc1c(O)cc(O)c2c(=O)c(O)c(-c3ccc(O)cc3)oc12 [Desmethylicaritin]

metabolic conversion [3]: converted to 3-O-methyl rosmarinic acid
time to enter the system after administration [3]: ≤ 20 min
SMILES: O=C(/C=C/c1ccc(O)c(O)c1)O[C@H](Cc1ccc(O)c(O)c1)C(=O)O [Rosmarinic acid]
AP-1-dependent activation of COX-2 expression (COX-2 expression): potential preventative effects

peak serum icariin concentration ([2]; 12.6 mg icariin ingested): 2.1 ng/mL
interaction with estrogen receptor alpha [4]: not with the primary alpha receptor
SMILES: COc1ccc(-c2oc3c(CC=C(C)C)c(O[C@@H]4O[C@H](CO)[C@@H](O)[C@H](O)[C@H]4O)cc(O)c3c(=O)c2O[C@@H]2O[C@@H](C)[C@H](O)[C@@H](O)[C@H]2O)cc1 [icariin, 5-hydroxy-2-(4-methoxyphenyl)-8-(3-methylbut-2-enyl)-7-[(2S,3R,4S,5S,6R)-3,4,5-trihydroxy-6-(hydroxymethyl)oxan-2-yl]oxy-3-[(2S,3R,4R,5R,6S)-3,4,5-trihydroxy-6-methyloxan-2-yl]oxychromen-4-one]
bone mass density / bone loss [5]: increases bone density
interaction with estrogen receptor beta (estrogen receptor beta): interact with estrogen receptor beta; also recorded: targets the beta receptor over the alpha receptor

The next lines start with the compound.

SMILES: O=S(=O)(O)O/N=C(\Cc1ccccc1)S[C@@H]1O[C@H](CO)[C@@H](O)[C@H](O)[C@H]1O [Benzylglucosinolate]
prostate weight [1]: as effective at reducing prostate weight as 0.1 mg finasteride

SMILES: COc1ccc(-c2oc3c(CC=C(C)C)c(O)cc(O)c3c(=O)c2O)cc1 [icaritin]
time of peak icaritin level [2]: 8 h
growth of prostate carcinoma cells [6]: inhibit prostate cancer cell growth
growth of prostate carcinoma cells ([6]; listed as Icaritin): strongly inhibited growth
apoptosis of human prostatic smooth muscle cells [7]: inducing apoptosis; also recorded: induces apoptosis
cyclin D1 and CDK4 expression [7]: decreases
growth of human prostatic smooth muscle cells [7]: reduces the growth

SMILES: O=c1c(O)c(-c2ccc(O)c(O)c2)oc2cc(O)cc(O)c12 [quercetin, 2-(3,4-dihydroxyphenyl)-3,5,7-trihydroxy-4H-chromen-4-one]
MMP2 activity (MMP2; P<0.05): significantly inhibited
MMP2 expression (MMP2; dose dependent manner): inhibited
prostate and seminal vesicle size (rats): decreased significantly
prostate and seminal vesicle size (rats; listed as Quercetin): effective at reducing prostate size
sperm quality and sexual organ function (rats; 270 mg/kg group): positive effect
peak plasma concentration [8]: 463 ng/mL
time to peak plasma concentration [8]: 3.5 h
MMP9 activity (MMP9; P<0.05): significantly inhibited
MMP9 expression (MMP9; dose dependent manner): inhibited
